Patent publication US6352716B1, “Steroidal liposomes” (The Liposome Company Inc., priority 1984, dated 2002)
≈ marks a conversion by molar mass, not a printed value. Where two headings read alike, the source gives them in different places. Blank lines part the entries; values can stand above or below the molecule they belong to.

How the values were obtained:
[1] = type: physicochemical
Method: CHS-MLVs were prepared as described in Section 6.2 using 25 mg tris-salt CHS in 1.0 ml 0.01 M Tris-HCl (pH 7.4), 0.14 M NaCl buffer. The CHS-MLV preparation was sonicated to clarify to form sonicated CHS-SUVs and then either 5, 10, 15, 25, 30 or 166 mg BGH (Eli Lilly & Co., Indianapolis, Ind.) was added to separate aliquots of the sonicated CHS-SUV suspension. The suspensions were extensively mixed vortically, resulting in partitioning of the protein into the CHS-SUV bilayers. The sonicated CHS-SUV suspensions were visually observed for the presence of precipitate at 1, 2, and 21 days.
CHS-MLVs were prepared as described in Section 6.2 using 25 mg tris-salt CHS in 1.0 ml 0.01 M Tris-HCl (pH 7.4), 0.14 M Nacl buffer. The CHS-MLV preparation was sonicated to clarity to form sonicated CHS-SUVs and up to 47 mg zinc-insulin powder (Boving Pancreatic Insulin, Sigma Chemical Co., St. Louis, Mo.) was added to the CHS-SUV suspension. The suspension was extensively mixed vortically, resulting in partitioning of the insulin into the CHS-SUV bilayers. The sonicatd CHS-SUVs were visually observed for the presence of precipitate at 1, 2, and 21 days. […] Insulin entrapment occurs more rapidly at 37° C.
Small unilamellar vesicles were prepared as follows: 100 mg tylosin-base (Eli Lilly & Co., Indianapolis, Ind.) and 200 mg tris-salt CHS were mixed vertically in 4 ml phosphate buffered saline (pH 7.4). […]

[2] = cited from earlier work
[3] = Retention of 125I-human growth hormone in the hind limb after intramuscular injection; design: species or system Swiss-Webster mice; settings: mouse, in vivo
Method: A group of 12 female Swiss-Webster mice were injected intramuscularly in the hind limb with 0.5 ml of the CHS-MLV entrapped ^125I-HGH suspension. A control group of 12 mice were injected with 0.5 ml free ^125I-HGH in .01 M Tris-HCl, 0.14 M NaCl buffer. Each animal in both groups received approximately 35,000 cpm/animal. At periodic intervals post-injection, the mice were sacrificed, the hind limb dissected, and percent total radioactivity remaining was determined. […] Thus, when injected intramuscularly, the CHS-liposome entrapped drug is released in a sustained fashion.

[4] = type: physicochemical; settings: arsenazo III 4.5 mM, buffer pH 7.3, 50-54 mg salt in 1 ml, MLVs washed three times
Method: (§1) The 2-amino-2-methyl-1,3-propanediol salt of cholesterol hemisuccinate (50 mg) was added to a 1 ml solution of arsenazo III (4.5 mM, final concentration) in 0.01 M 2-amino-2-methyl-1,3-propanediol-HCl (pH 7.3), 0.07 M KCl, 0.07 M NaCl. The suspension of CHS-MLVs was formed by mixing vortically with glass beads. The CHS-MLVs were pelleted by centrifugation at 10,000×g for 15 minutes, and the resulting pellet was washed three times as described in Section 6.1.1.
as §1, with “2-aminoethanol” for “2-amino-2-methyl-1,3-propanediol”, “2-aminoethanol-HCl” for “2-amino-2-methyl-1,3-propanediol-HCl”, “vertically” for “vortically”
The suspension of CHS-MLVs was formed by mixing vertically with glass beads. The CHS-MLVs were pelleted by centrifugation at 10,000×g for 15 minutes, and the resulting pellet was washed three times as described in Section 6.1.1.
as §1, with “triethanolamine” for “2-amino-2-methyl-1,3-propanediol”, “triethanolamine-HCL” for “2-amino-2-methyl-1,3-propanediol-HCl”

[5] = Entrapment of 3H-diazepam in sonicated CHS-SUVs; settings: Diazepam 5 mg/ml

precipitate formation (visual comparison) ([1]; 100 mg tylosin base in 4 ml: CHS-SUV supernatant versus suspension in water): A precipitate formed
Molecule: CC[C@H]1OC(=O)C[C@@H](O)[C@H](C)[C@@H](O[C@@H]2O[C@H](C)[C@@H](O[C@H]3C[C@@](C)(O)[C@@H](O)[C@H](C)O3)[C@H](N(C)C)[C@H]2O)[C@@H](CC=O)C[C@@H](C)C(=O)/C=C/C(C)=C/[C@@H]1CO[C@@H]1O[C@H](C)[C@@H](O)[C@@H](OC)[C@H]1OC [Tylosin, reference compound]
solubility in water ([2]; 25° C.): 5000 µg/mL (≈ 5.46 mM)

Molecule: ^125I-HGH: free 125I-labelled human growth hormone in 0.01M Tris-HCl, 0.14M NaCl
% Radioactivity Remaining in Limb ([3]; 3 h): 5%
% Radioactivity Remaining in Limb ([3]; 24 h): 0.7%
% Radioactivity Remaining in Limb ([3]; 72 h): 0.2%
% Radioactivity Remaining in Limb ([3]; 168 h): 0.3%

Molecule: CC(C)CCC[C@@H](C)[C@H]1CC[C@H]2[C@@H]3CC=C4C[C@@H](OC(=O)CCC(=O)O)CC[C@]4(C)[C@H]3CC[C@]12C.NCCO [2-aminoethanol salt of cholesterol hemisuccinate]
entrapment of arsenazo III (colour of washed pellet) [4]: red in color indicating entrapment of the arsenazo III

Molecule: CC(C)CCC[C@@H](C)[C@H]1CC[C@H]2[C@@H]3CC=C4C[C@@H](OC(=O)CCC(=O)O)CC[C@]4(C)[C@H]3CC[C@]12C.NC(CO)(CO)CO [Tris-salt CHS, tris(hydroxymethyl)aminomethane salt of cholesteryl hemisuccinate]
entrapment of arsenazo III (colour of washed pellet) [4]: red in color indicating entrapment of the arsenazo III
% 3H-Diazepam Entrapped ([5]; CHS 100 mg/ml): 100%
% 3H-Diazepam Entrapped ([5]; CHS 200 mg/ml): 100%

Molecule: Zinc-insulin: a polypeptide hormone; zinc-insulin powder, bovine pancreatic insulin from Sigma
solubility in aqueous phases ([2]; pH 4.5): practically insoluble

Molecule: COc1ccc2c(c1)c(CC(=O)O)c(C)n2C(=O)c1ccc(Cl)cc1 [Indomethacin]
solubility in water [2]: practically insoluble in water

Molecule: CC(C)CCC[C@@H](C)[C@H]1CC[C@H]2[C@@H]3CC=C4C[C@@H](OC(=O)CCC(=O)O)CC[C@]4(C)[C@H]3CC[C@]12C.CC(N)(CO)CO [2-amino-2-methyl-1,3-propanediol salt of cholesterol hemisuccinate]
entrapment of arsenazo III (colour of washed pellet) [4]: red in color indicating entrapment of the arsenazo III

Molecule: CC(C)CCCC(C)C1CCC2C3CC=C4CC(OC(=O)CCC(=O)O)CCC4(C)C3CCC12C.OCCN(CCO)CCO (stereo not drawn) [triethanolamine salt of cholesterol hemisuccinate]
entrapment of arsenazo III (colour of washed pellet) [4]: red in color indicating entrapment of the arsenazo III

B1: BGH: a simple protein composed of a single chain of approximately 191 amino acids (protein, UniProt P01246 27-217, looked up)
Somatotropin: AFPAMSLSGLFANAVLRAQHLHQLAADTFKEFERTYIPEGQRYSIQNTQVAFCFSETIPAPTGKNEAQQKSDLELLRISLLLIQSWLGPLQFLSRVFTNSLVFGTSDRVYEKLKDLEEGILALMRELEDGTPRAGQILKQTYDKFDTNMRSDDALLKNYGLLSCFRKDLHKTETYLRVMKCRRFGEASCAF
presence of precipitate at 1, 2, and 21 days ([1]; 5-166 mg BGH added to sonicated CHS-SUVs (25 mg tris-salt CHS in 1.0 ml), room temperature): No precipitate was observed
